Data: patent US20260241012A1, “1,8-NAPHTHYRIDIN-2-ONE HETEROBIFUNCTIONAL BCL6 DEGRADERS” (Treeline Biosciences, Inc., priority 2022, published 2026)

Target: T1, N-terminal HiBiT tagged BCL6 (Homo sapiens, UniProt P41182)
T1 construct: expressed in transfected cells; host or cells: HT1080 (ATCC CCL-121), stably transduced with lentivirus pLV-UBC-N-HiBiT-BCL6-PGK-puro
Assay: HiBiT based degradation assay
Assay type: cell-based
Settings: HT1080 cells expressing N-terminal HiBiT tagged BCL6, 5 hours of incubation; for Ymin (5 hr): BCL6 degradation normalized with DMSO control; for DC50: four-parameter logistic model, read-out: EC50 (5 hr)
Summary of the method: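 Degradation measured by luminescence from the Nano-Glo HiBiT lytic reagent (15 min, room temperature), normalized to DMSO controls and fitted to a four-parameter curve.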

CNC(=O)COc1cc2cc(Nc3nc(N4CCN(C(=O)N5CCC(c6ccc7c(C8CCC(=O)NC8=O)nn(C)c7c6)CC5)CC4)ncc3Cl)cnc2n(C(C)C)c1=O (stereo not drawn) [Compound 220, 2-[[6-[[5-chloro-2-[4-[4-[3-(2,6-dioxo-3-piperidyl)-1-methyl-indazol-6-yl]piperidine-1-carbonyl]piperazin-1-yl]pyrimidin-4-yl]amino]-1-isopropyl-2-oxo-1,8-naphthyridin-3-yl]oxy]-N-methyl-acetamide]
Ymin (5 hr): +++ (30% ≤ Ymin < 50%) | DC50: < 10 nM

CNC(=O)COc1cc2cc(Nc3nc(N4CCC(CN5CCN(c6ccc7c(C8CCC(=O)NC8=O)nn(C)c7c6)CC5(C)C)CC4)ncc3Cl)cnc2n(C(C)C)c1=O (stereo not drawn) [Compound 196, 2-((6-((5-chloro-2-(4-((4-(3-(2,6-dioxopiperidin-3-yl)-1-methyl-1H-indazol-6-yl)-2,2-dimethylpiperazin-1-yl)methyl)piperidin-1-yl)pyrimidin-4-yl)amino)-1-isopropyl-2-oxo-1,2-dihydro-1,8-naphthyridin-3-yl)oxy)-N-methylacetamide]
Ymin (5 hr): +++ (30% ≤ Ymin < 50%) | DC50: < 10 nM

CNC(=O)COc1cc2cc(Nc3nc(N4CC[C@@H](CN5CCN(c6cccc7c(C8CCC(=O)NC8=O)nn(C)c67)CC5)[C@@H](C)C4)ncc3Cl)cnc2n(C(C)C)c1=O (stereo partly drawn) [Compound 177b, 2-[[6-[[5-chloro-2-[(3R,4R)-4-[[4-[3-(2,6-dioxo-3-piperidyl)-1-methyl-indazol-7-yl]piperazin-1-yl]methyl]-3-methyl-1-piperidyl]pyrimidin-4-yl]amino]-1-isopropyl-2-oxo-1,8-naphthyridin-3-yl]oxy]-N-methyl-acetamide]
Ymin (5 hr): +++ (30% ≤ Ymin < 50%) | DC50: 10 to 100 nM
